Experimental data: patent US8986696B2, “Trans-capsular administration of p38 map kinase inhibitors into orthopedic joints” (DePuy Mitek, Inc., priority 2007, dated 2015)
Like-named read-outs stand apart in the source and are kept apart here.

Legend:
[1] = test system: IL-1β-stimulated GAG release, bovine chondrocyte pellets / ARC tissues; test: chondrocyte pellet culture model: GAG degradation; format: cell-based; conditions: for inhibition of GAG degradation: ARC tissues stimulated with IL-1β; for GAG Release: Pellet Assay
Method in brief: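 Bovine chondrocyte pellets (calf articular cartilage, 2–3 weeks culture) or ARC tissue punches pretreated with compounds for 1 h at 37° C, then 3–5 days with or without 10 ng/ml IL-1β; DMSO ≤1%. Medium GAG measured by dimethylmethylene blue absorbance at 525 nm against chondroitin sulfate; reported as μg/ml or % total GAG released.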

solubility = format: physicochemical
[2] = test system: rabbit anterior cruciate ligament transection (ACLT) model of osteoarthritis; test: ACLT model, therapeutic dosing regimen (Example IX); format: in vivo; conditions: for Trochlear Groove Erosion of Cartilage / Tibial Plateau Presence of Clefts (Lateral) / Tibial Plateau Presence of Clefts (Medial) / Trochlear Groove Thickening / Femoral Condyle Presence of Clefts / Femoral Condyle % Surface Area Erosion (Lateral) / Femoral Condyle % Surface Area Erosion (Medial) / Tibial Plateau % Surface Area Erosion (Lateral) / Tibial Plateau % Surface Area Erosion (Medial) / Tibial Plateau # of Osteophytes (Lateral) / Tibial Plateau # of Osteophytes (Medial) / Trochlear Groove # of Osteophytes / Trochlear Groove Osteophyte Size / Femoral Condyle Depth of Erosion (Lateral) / Femoral Condyle Depth of Erosion (Medial) / Tibial Plateau Depth of Erosion (Lateral) / Tibial Plateau Depth of Erosion (Medial) / Combination Scores: All Trochlear Groove Effects / Combination Scores: All Condylar Effects / Combination Scores: All Tibial Plateau Effects / Combination Scores: All Cartilage Effects / Combination Scores: Total Score: Therapeutic Dosing Regimen; for Trochlear Groove Erosion of Cartilage / Tibial Plateau Presence of Clefts (Lateral) / Tibial Plateau Presence of Clefts (Medial) / Trochlear Groove Thickening / Femoral Condyle Presence of Clefts / Femoral Condyle % Surface Area Erosion (Lateral) / Femoral Condyle % Surface Area Erosion (Medial) / Tibial Plateau % Surface Area Erosion (Lateral) / Tibial Plateau % Surface Area Erosion (Medial) / Tibial Plateau # of Osteophytes (Lateral) / Tibial Plateau # of Osteophytes (Medial) / Trochlear Groove # of Osteophytes / Trochlear Groove Osteophyte Size / Femoral Condyle Depth of Erosion (Lateral) / Femoral Condyle Depth of Erosion (Medial) / Tibial Plateau Depth of Erosion (Lateral) / Tibial Plateau Depth of Erosion (Medial): mean gross score; for Trochlear Groove Erosion of Cartilage: 0 = 0, 1 < 25%, 2 = 25-50%, 3 > 50%; for Tibial Plateau Presence of Clefts (Lateral) / Tibial Plateau Presence of Clefts (Medial): 0 = Absent, 1 = Present; for Trochlear Groove Thickening: 0 = Normal, 1 = Thickened Areas; for Femoral Condyle Presence of Clefts: 0 = absent, 1 = unicondylar, 2 = both condyles; for Femoral Condyle % Surface Area Erosion (Lateral) / Femoral Condyle % Surface Area Erosion (Medial) / Tibial Plateau % Surface Area Erosion (Lateral) / Tibial Plateau % Surface Area Erosion (Medial): scale 0-5; for Tibial Plateau # of Osteophytes (Lateral) / Tibial Plateau # of Osteophytes (Medial) / Trochlear Groove # of Osteophytes / Trochlear Groove Osteophyte Size: scale 0 = 0; for Tibial Plateau # of Osteophytes (Lateral) / Tibial Plateau # of Osteophytes (Medial) / Trochlear Groove # of Osteophytes: 1 = 1, 2 = 2, 3 ≧ 2; for Trochlear Groove Osteophyte Size: 1 ≦ 1 mm, 2 = 1-2 mm, 3 > 2 mm; for Femoral Condyle Depth of Erosion (Lateral) / Femoral Condyle Depth of Erosion (Medial) / Tibial Plateau Depth of Erosion (Lateral) / Tibial Plateau Depth of Erosion (Medial): scale 0 = no damage to 3 = severe; for Combination Scores: All Trochlear Groove Effects / Combination Scores: All Condylar Effects / Combination Scores: All Tibial Plateau Effects / Combination Scores: All Cartilage Effects / Combination Scores: Total Score: mean; for Combination Scores: All Trochlear Groove Effects: 0-10, 10 = max damage; for Combination Scores: All Condylar Effects: 0-18, 18 = max damage; for Combination Scores: All Tibial Plateau Effects: 0-24, 24 = max damage; for Combination Scores: All Cartilage Effects: 0-40, 40 = max damage; for Combination Scores: Total Score: 0-52, 52 = max damage
Description: 130 Female New Zealand white rabbits underwent ACLT on the right knee. Intra-articular injections were administered to the operated knee once per week for five weeks beginning either one or six weeks after the ACLT. All animals were euthanized one week after the administration of the fifth injection. Gross observations were made on the knee joints according to a predetermined grading scale. The stifle joints were removed. Samples were preserved in 10% neutral buffered formalin. The stifle joints were photographed using high-resolution photography.
The ACLT was performed according to the ACLT model discussed above. Animals were group housed in pens on the floor and left untreated for six weeks to allow osteoarthritis to develop. Then, once weekly for five weeks, intra-articular injections were administered. One week following the last injection, the animals were sacrificed. The total in-life portion of this regimen was eleven weeks post-ACLT.
The study design consisted of an n=10 per group. A total of 160 μl was injected at each administration.
At the time of sacrifice the following parameters were evaluated grossly (the scale follows in parenthesis):
Each parameter was given a score. The combination of all parameters gave a Total Score (0-52). Additionally, combinations of the three subsets of data yielded scores for All Trochlear Groove Effects (0-10), All Condylar Effects (0-18) and All Tibial Plateau Effects (0-24). Lastly, an […] was obtained. The score for […] ranges from 0 to 40. The grades that compose this parameter are trochlear groove thickness and erosion, all the grades in All Condylar Effects, and all grades listed under Tibial Plateau. A higher score indicates more damage to the joint. A lower score indicates less damage or more cartilage preservation in the joint. Individual results for each parameter assessed were tabulated.

| Structure (SMILES) | inhibition of GAG degradation [1] | Trochlear Groove Erosion of Cartilage [2] | Tibial Plateau Presence of Clefts (Lateral) [2] | Tibial Plateau Presence of Clefts (Medial) [2] | Trochlear Groove Thickening [2] | Femoral Condyle Presence of Clefts [2] | Femoral Condyle % Surface Area Erosion (Lateral) [2] | Femoral Condyle % Surface Area Erosion (Medial) [2] | Tibial Plateau % Surface Area Erosion (Lateral) [2] | Tibial Plateau % Surface Area Erosion (Medial) [2] | Tibial Plateau # of Osteophytes (Lateral) [2] | Tibial Plateau # of Osteophytes (Medial) [2] | Trochlear Groove # of Osteophytes [2] | Trochlear Groove Osteophyte Size [2] | Femoral Condyle Depth of Erosion (Lateral) [2] | Femoral Condyle Depth of Erosion (Medial) [2] | Tibial Plateau Depth of Erosion (Lateral) [2] | Tibial Plateau Depth of Erosion (Medial) [2] | Combination Scores: All Trochlear Groove Effects [2] | Combination Scores: All Condylar Effects [2] | further results |
| --- | --- | --- | --- | --- | --- | --- | --- | --- | --- | --- | --- | --- | --- | --- | --- | --- | --- | --- | --- | --- | --- |
| CC(=O)Oc1cccc2c1C(=O)c1c(OC(C)=O)cc(C(=O)O)cc1C2=O [Diacerein, reference compound] | – | – | – | – | – | – | – | – | – | – | – | – | – | – | – | – | – | – | – | – | lowest concentration inhibiting proteoglycan degradation ([1]; 10 ng/ml IL-1β, five days): ≤ 0.054 µM |
| OCCC#Cc1nc(-c2ccc(F)cc2)c(-c2ccncc2)n1CCCc1ccccc1 [JNJ 3026582 (RWJ 67657), 4-[4-(4-fluorophenyl)-1-(3-phenylpropyl)-5-(4-pyridinyl)-1H-imidazol-2-yl]-3-butyn-1-ol] | significant effect | 1.9 | 0 | 0 | 0.3 | 0 | 2.4 | 0.7 | 1.3 | 0.4 | 0.9 | 1.4 | 2.9 | 2.9 | 1.7 | 0.8 | 0.9 | 0.2 | 8.0 | 5.6 | water solubility (solubility): poor water solubility; pH at which soluble (solubility; soluble at pH<2): < 2; Combination Scores: All Tibial Plateau Effects [2]: 5.3; Combination Scores: All Cartilage Effects [2]: 10.8; Combination Scores: Total Score [2]: 18.9 |
| C[C@H](Nc1nccc(-c2c(-c3ccc(F)cc3)nc3nc(N)ccn23)n1)c1ccccc1 [JNJ 7583979 (RWJ 351958)] | significant effect | – | – | – | – | – | – | – | – | – | – | – | – | – | – | – | – | – | – | – | water solubility (solubility): poor water solubility |
| CC(=O)N1CCN(c2c(-c3ccncc3)c(-c3ccc(F)cc3)c(C#N)n2C)CC1 [JNJ 17089540 (RWJ 669307)] | little effect | 1.6 | 0 | 0 | 0 | 0 | 1.1 | 0.4 | 1.4 | 0 | 0.7 | 1.5 | 3.0 | 3.0 | 1.1 | 0.2 | 1.2 | 0 | 7.6 | 2.8 | water solubility (solubility; HCl salt): > 100 mg/mL; GAG Release [1]: No effect; Combination Scores: All Tibial Plateau Effects [2]: 4.8; Combination Scores: All Cartilage Effects [2]: 7.0; Combination Scores: Total Score [2]: 15.2; All Cartilage Effects, mean score ([2]; therapeutic dosing regimen): 7.0+1.0; all condylar effects, mean score ([2]; therapeutic dosing regimen): 2.8 ± 0.6; depth of the erosion on the lateral femoral condyle, mean score ([2]; therapeutic dosing regimen): 1.1 ± 0.4; depth of the erosion on the medial femoral condyle, mean score ([2]; therapeutic dosing regimen): 0.2 ± 0.1; percent surface area erosion of the lateral femoral condyle, mean score ([2]; therapeutic dosing regimen): 1.1 ± 0.4; percent surface area erosion of the medial femoral condyle, mean score ([2]; therapeutic dosing regimen): 0.4 ± 0.2; total score, mean ([2]; therapeutic dosing regimen): 15.2 ± 1.2 |
| CC(C(=O)O)c1ccc(C(=O)c2cccs2)cc1 (centres unmarked) [Suprofen, reference compound] | – | 1.9 | 0 | 0 | 0 | 0 | 1.3 | 0.3 | 1.6 | 0 | 0.8 | 1.6 | 3.0 | 3.0 | 1.3 | 0.2 | 1.4 | 0 | 7.9 | 3.0 | GAG Release [1]: No effect; Combination Scores: All Tibial Plateau Effects [2]: 5.4; Combination Scores: All Cartilage Effects [2]: 7.9; Combination Scores: Total Score [2]: 16.3; All Cartilage Effects, mean score ([2]; therapeutic dosing regimen): 7.9+1.5; all condylar effects, mean score ([2]; therapeutic dosing regimen): 3.0 ± 1.0; depth of the erosion on the lateral femoral condyle, mean score ([2]; therapeutic dosing regimen): 1.3 ± 0.4; depth of the erosion on the medial femoral condyle, mean score ([2]; therapeutic dosing regimen): 0.2 ± 0.1; percent surface area erosion of the lateral femoral condyle, mean score ([2]; therapeutic dosing regimen): 1.3 ± 0.4; percent surface area erosion of the medial femoral condyle, mean score ([2]; therapeutic dosing regimen): 0.3 ± 0.2 |
